Entries after “also recorded” stand apart in the source; their conditions may differ.
Assays:
Jurkat cells [1] = assay: anti-TCR-induced CD69 upregulation in naive Jurkat cells; format: cell-based, human
Experimental: Stimulation: For CD69 upregulation experiments, tTA-Jurkat cells were split to 2.5×10^5 cells/ml 24 hours prior to stimulation. Cells were spun and resuspended at 5×10^5 cells/ml in fresh complete RPMI medium in the presence of 100 ng/ml […] (anti-Jurkat clonotypic TCR) or 5 ng/ml PMA hybridoma supernatant for 20-26 hours at 37° C., and then assayed for surface CD69 expression. Cell surface marker analysis: Jurkat-N cells were stained with an APC-conjugated mouse monoclonal anti-human CD69 antibody (Caltag) at 4° C. for 20 minutes and analyzed using a Facscalibur instrument (Becton Dickinson) with Cellquest software. Cell sorts were performed on a MoFlo (Cytomation).

EDG-1 [2] = molecular target: T1, EDG-1 (Homo sapiens, UniProt P21453); assay: anti-BCR induced CD69 upregulation in BJAB cells expressing TIG-EDG-1 constructs; format: cell-based
EDG-1 [3] = assay: as above; format: cell-based
Jurkat cells [4] = assay: SPP-induced migration assay in Jurkat cells; format: cell-based, human
Excerpt: (§1) “Lymphocyte migration” refers to migration of B and T lymphocytes to and from primary and secondary lymphoid organs (e.g., bone marrow, thymus, lymph nodes, spleen, Peyer's patch, and tonsils), the periphery, and non-lymphoid tissues via the blood stream, lymphatic vessels, and by penetration of capillary walls (see, e.g., Paul, Immunology (3rd ed., 1993) (Chapters 4 and 6)). […] SPP and LPA are present in serum and are produced by a number of cells, including platelets and fibroblasts. Ligand-induced lymphocyte migration can be measured using the assay described in FIG. 33A, in which lymphocytes migrate toward the ligand from an upper to a lower chamber. The sphingolipid analog compound 2-amino-2(2-[4-octylphenyl]ethyl)-1,3-propanediol hydrochloride and analogs thereof inhibit such migration. The C-terminus of EDG-1 appears to be involved in migration. Such domains (e.g., the cytoplasmic tail of EDG-1) can be used in high throughput binding assays for compounds that modulate lymphocyte migration.
(§2) As described above, in one embodiment, lymphocyte activation is measured by contacting T cells comprising an EDG target with a potential modulator and activating the cells with an anti-TCR antibody. […] In another embodiment, lymphocyte migration is measured by observing T cell migration from an upper to a lower chamber containing an EDG ligand such as SPP.

BJAB cells = assay: anti-BCR-induced CD69 upregulation in naive BJAB cells; format: cell-based
EDG-1 [5] = molecular target: T1, EDG-1; assay: EDG-1 wild-type enhanced SPP-induced migration in Jurkat cells; format: cell-based; details: Jurkat cells expressing EDG-1 wild-type
Excerpt: (§3) “Lymphocyte migration” refers to migration of B and T lymphocytes to and from primary and secondary lymphoid organs (e.g., bone marrow, thymus, lymph nodes, spleen, Peyer's patch, and tonsils), the periphery, and non-lymphoid tissues via the blood stream, lymphatic vessels, and by penetration of capillary walls (see, e.g., Paul, Immunology (3rd ed., 1993) (Chapters 4 and 6)). […] SPP and LPA are present in serum and are produced by a number of cells, including platelets and fibroblasts. Ligand-induced lymphocyte migration can be measured using the assay described in FIG. 33A, in which lymphocytes migrate toward the ligand from an upper to a lower chamber.
(§4) As described above, in one embodiment, lymphocyte activation is measured by contacting T cells comprising an EDG target with a potential modulator and activating the cells with an anti-TCR antibody. Modulation of T cell activation is identified by screening for cell surface marker expression, e.g., CD69 expression levels, using fluorescent antibodies and FACS sorting. In another embodiment, lymphocyte migration is measured by observing T cell migration from an upper to a lower chamber containing an EDG ligand such as SPP.

primary T cell = assay: SPP-induced primary T cell migration; format: cell-based; details: primary T cells
Excerpt: as §1, §2

EDG-1 [6] = molecular target: T1, EDG-1; assay: EDG-1 wild-type induced CD69 inhibition in Jurkat cells; format: cell-based; details: Jurkat cells expressing EDG-1 wild-type
Experimental: Stimulation: For CD69 upregulation experiments, tTA-Jurkat cells were split to 2.5×10^5 cells/ml 24 hours prior to stimulation. Cells were spun and resuspended at 5×10^5 cells/ml in fresh complete RPMI medium in the presence of 100 ng/ml [MUT] (anti-Jurkat clonotypic TCR) or 5 ng/ml PMA hybridoma supernatant for 20-26 hours at 37° C., and then assayed for surface CD69 expression. Cell surface marker analysis: Jurkat-N cells were stained with an APC-conjugated mouse monoclonal anti-human CD69 antibody (Caltag) at 4° C. for 20 minutes and analyzed using a Facscalibur instrument (Becton Dickinson) with Cellquest software. Cell sorts were performed on a MoFlo (Cytomation).

EDG-1 [7] = molecular target: T1, EDG-1; assay: EDG-1 mediated SPP-induced lymphocyte migration; format: cell-based; details: lymphocytes migrating toward ligand from upper to lower chamber
Excerpt: as §3, §4

T1 sequence (P21453 whole entry): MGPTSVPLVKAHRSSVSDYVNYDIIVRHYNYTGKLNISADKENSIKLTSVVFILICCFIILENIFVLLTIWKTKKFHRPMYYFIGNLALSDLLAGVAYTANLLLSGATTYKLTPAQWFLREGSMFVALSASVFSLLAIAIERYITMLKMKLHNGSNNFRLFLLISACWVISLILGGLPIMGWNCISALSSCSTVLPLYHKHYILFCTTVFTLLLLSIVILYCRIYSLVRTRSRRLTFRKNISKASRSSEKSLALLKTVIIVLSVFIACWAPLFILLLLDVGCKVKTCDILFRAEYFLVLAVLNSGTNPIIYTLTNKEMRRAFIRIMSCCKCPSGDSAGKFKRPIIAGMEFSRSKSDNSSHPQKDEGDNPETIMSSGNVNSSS

| Compound | effect on anti-TCR-induced CD69 upregulation (Jurkat cells [1]; in the presence of CS-FBS) | effect on anti-TCR-induced CD69 upregulation (Jurkat cells [1]; regular serum) | effect on wild-type EDG-1 inhibition of anti-BCR induced CD69 upregulation (EDG-1 [2]; BJAB cells expressing wild-type EDG-1) | dose dependence of wild-type EDG-1 inhibition of anti-BCR induced CD69 upregulation (EDG-1 [2]; cells overexpressing wild-type EDG-1, SPP added) | effect on anti-BCR induced CD69 upregulation (EDG-1 [3]; BJAB cells expressing TIG vector) | effect on the inhibition of EDG-1 mediated anti-BCR induced CD69 upregulation (EDG-1 [3]; BJAB cells, FIGS. 29 and 30) | migration of Jurkat cells (Jurkat cells [4]; Jurkat cells migrating toward ligand) | effect on anti-BCR-induced CD69 upregulation (BJAB cells; in the presence of CS-FBS) | effect on anti-BCR-induced CD69 upregulation (BJAB cells; regular serum) | effect on EDG-1 wild-type enhanced SPP-induced migration (EDG-1 [5]) | effect on SPP-induced primary T cell migration (primary T cell) | effect on EDG-1 wild-type induced CD69 inhibition (EDG-1 [6]) | effect on EDG-1 mediated SPP-induced (ligand-induced) lymphocyte migration (EDG-1 [7]; listed as 2-amino-2(2-[4-octylphenyl]ethyl)-1,3-propanediol hydrochloride) | effect on EDG-1 mediated SPP-induced (ligand-induced) lymphocyte migration (EDG-1 [7]; hydrochloride) | effect on SPP-induced migration (Jurkat cells [4]; Jurkat cells) |
| --- | --- | --- | --- | --- | --- | --- | --- | --- | --- | --- | --- | --- | --- | --- | --- |
| CCCCCCCCCCCCC/C=C/[C@@H](O)[C@@H](N)COP(=O)(O)O [SPP, sphingosine-1-phosphate] | no effect | no effect | potentiates | dose-dependent manner; also recorded: dose dependent manner | no effect | no effect | induced migration | no effect | no effect |  |  |  |  |  |  |
| CCCCCCCCc1ccc(CCC(N)(CO)CO)cc1.Cl [FTY720, 2-amino-2(2-[4-octylphenyl]ethyl)-1,3-propanediol hydrochloride] |  |  |  |  |  |  |  |  |  | inhibits | inhibits | no effect | inhibit | blocked | no effect |
